Experimental data from patent publication US20230227815A1, “Systems, Methods, And Compositions For A Facile Accelerated Specific Therapeutic (Fast) Pipeline” (priority 2019, published 2023).
Values after ≈ are worked out from the molar mass of the structure shown.

Test system: E. Coli CUS2B
Assay: Minimum inhibitory concentration assay
Type: cell-based
Conditions: for resistance phenotype (CLSI breakpoints): E. Coli CUS2B clinical isolate; for MIC: Escherichia coli, E. Coli CUS2B
Excerpt: To validate the E. Coli CUS2B resistance phenotype observed in the clinic, we measured the isolate's minimum inhibitory concentrations (MIC) for a variety of antibiotics from different classes (FIG. 17A). […] Two potent carbapenem antibiotics, meropenem and doripenem, were the only drugs to which the clinical isolate was susceptible. To investigate this partial carbapenem resistance, we focused on the E. Coli CUS2B response to ertapenem and meropenem. The structures of meropenem and ertapenem differ in the pyrrolidinyl ring's position 2 side chain (FIG. 17B). Meropenem's substituent amide group is thought to be responsible for increased potency against gram-negative organisms in comparison to imipenem. At this position ertapenem has a benzoate substituent group, which imbues the molecule with a net negative charge and increases its lipophilicity, resulting in increased plasma half-life but decreased affinity for membrane porins.
E. Coli CUS2B was provided the Dr. Nancy Madinger, at the University of Colorado Hospital Clinical Microbiology Laboratory's organism bank. The isolate was obtained via rectal swab from a pregnant patient. Unless otherwise mentioned, CUS2B was propagated in aerobic conditions at 37° C. in liquid cultures of cation-adjusted Mueller Hinton broth (CAMHB) with shaking at 225 rpm or on solid CAMHB with 15 g/L of agar. Minimum inhibitory concentration assays Three colonies were picked from a plate and used to inoculate three separate overnight cultures in 1 mL CAMHB each. After 16 hours, the cultures were diluted 1:10,000 and treated with a range of antibiotic concentrations, decreasing in 2-fold increments, in a 384 or 96-well microplate using three biological replicates per condition. Growth in the plate was monitored with a Tecan GENios (Tecan Group Ltd.) running Magellan™ software (v 7.2) at an absorbance of 461 590 nm every 20 minutes for 16 hours, with shaking between measurements. The minimum inhibitory concentration was identified as the lowest antibiotic concentration preventing growth.

MIC | SMILES | resistance phenotype (CLSI breakpoints)
 | C[C@@H](O)[C@H]1C(=O)N2C(C(=O)O)=C(S[C@@H]3CN[C@H](CNS(N)(=O)=O)C3)[C@H](C)[C@H]12 [doripenem] | susceptible
2 µg/mL (≈ 4.21 µM) | C[C@@H](O)[C@H]1C(=O)N2C(C(=O)O)=C(S[C@@H]3CN[C@H](C(=O)Nc4cccc(C(=O)O)c4)C3)[C@H](C)[C@H]12 [ertapenem] | resistant
0.25 µg/mL (≈ 0.652 µM) | C[C@@H](O)[C@H]1C(=O)N2C(C(=O)O)=C(S[C@@H]3CN[C@H](C(=O)N(C)C)C3)[C@H](C)[C@H]12 [meropenem] | susceptible
